Test results as given in patent US12435080B2, “sGC stimulators” (Tisento Therapeutics Inc., priority 2016, dated 2025).
Like-named read-outs stand apart in the source and are kept apart here.

How the values were obtained:
sGC enzyme = molecular target: T1, sGC enzyme (Homo sapiens, UniProt Q02108+Q02153); assay: cGMP GloSensor cell-based assay, 384-well format; details: HEK293 cells expressing GloSensor 40F cGMP, 10 μM DETA-NONOate, normalized to 30 μM Compound Y
T1 construct: incorporated into these cells detect cGMP formed by the compounds stimulating the sGC enzyme; host or cells: HEK293 cells stably expressing GloSensor 40F cGMP biosensor
T1 sequence (Q02153 1-619): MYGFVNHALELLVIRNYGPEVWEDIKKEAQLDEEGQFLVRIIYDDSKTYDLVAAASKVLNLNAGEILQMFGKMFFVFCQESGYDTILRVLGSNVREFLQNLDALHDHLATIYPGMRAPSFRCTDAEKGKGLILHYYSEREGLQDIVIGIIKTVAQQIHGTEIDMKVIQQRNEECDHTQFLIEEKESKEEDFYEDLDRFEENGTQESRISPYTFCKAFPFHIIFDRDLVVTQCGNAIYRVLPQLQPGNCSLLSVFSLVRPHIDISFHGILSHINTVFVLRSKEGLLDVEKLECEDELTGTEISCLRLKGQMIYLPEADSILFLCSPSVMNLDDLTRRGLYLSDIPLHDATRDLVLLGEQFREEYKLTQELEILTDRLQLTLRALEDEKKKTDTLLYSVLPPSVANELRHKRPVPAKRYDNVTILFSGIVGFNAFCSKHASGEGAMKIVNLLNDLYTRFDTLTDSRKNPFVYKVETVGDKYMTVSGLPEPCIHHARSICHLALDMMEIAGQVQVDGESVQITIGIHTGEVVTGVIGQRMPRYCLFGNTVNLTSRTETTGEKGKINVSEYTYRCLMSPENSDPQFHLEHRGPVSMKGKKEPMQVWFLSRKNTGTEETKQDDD
T1 sequence (Q02108 1-690): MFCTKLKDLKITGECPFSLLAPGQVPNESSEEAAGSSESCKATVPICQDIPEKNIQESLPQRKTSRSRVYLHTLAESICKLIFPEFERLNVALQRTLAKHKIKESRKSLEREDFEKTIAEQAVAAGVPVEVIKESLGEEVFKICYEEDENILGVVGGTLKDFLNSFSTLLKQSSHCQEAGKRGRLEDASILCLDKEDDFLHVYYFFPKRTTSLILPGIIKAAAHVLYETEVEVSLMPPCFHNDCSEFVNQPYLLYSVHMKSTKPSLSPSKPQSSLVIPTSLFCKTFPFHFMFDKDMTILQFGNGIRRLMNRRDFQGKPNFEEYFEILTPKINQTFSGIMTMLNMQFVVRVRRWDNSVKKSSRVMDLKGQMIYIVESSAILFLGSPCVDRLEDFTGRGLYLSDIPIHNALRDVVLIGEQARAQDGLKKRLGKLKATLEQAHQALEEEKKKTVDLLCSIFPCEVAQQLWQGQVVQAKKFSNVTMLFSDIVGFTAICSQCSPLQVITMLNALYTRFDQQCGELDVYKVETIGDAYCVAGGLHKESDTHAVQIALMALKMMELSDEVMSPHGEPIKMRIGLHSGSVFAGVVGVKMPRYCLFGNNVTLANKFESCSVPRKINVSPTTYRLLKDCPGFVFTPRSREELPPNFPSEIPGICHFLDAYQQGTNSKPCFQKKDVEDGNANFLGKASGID
How it was run: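 HEK293 cells expressing GloSensor 40F cGMP luciferase biosensor, preloaded with 2 mM GloSensor substrate for 90 min at 25 °C. Endpoint luminescence read after 55 min compound incubation at room temperature.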

[1] = Rat cerebrospinal fluid (CSF) pharmacokinetic properties; type: in vivo; details: for concentration at 1 h: CSF, male Sprague-Dawley rats, PO 10 mg/kg in PEG400, 1 h post-dosing, read-out: CSF Conc. (nM @ 1 h); for Kp uu at 1 h: male, Sprague-Dawley, CSF and plasma (unbound), unbound CSF/unbound plasma ratio, rats, PO 10 mg/kg
Description: PK in rats was determined following oral dosing. For the oral (PO) experiments, a group of 6 male Sprague-Dawley rats with an indwelling catheter placed in the cisterna magna were used. The PO group was dosed with 3 or 10 mg/kg of a compound formulated as a solution in PEG400. PO doses were administered by oral gavage and delivered to the stomach using a syringe and gavage tube. Following oral dosage administration, the gavage tube was flushed with approximately 0.5 mL of water to ensure complete delivery of the full dose.
Plasma and CSF samples were collected as follows: samples of CSF and blood were collected at 1 hour and 2 hours post-dosing. CSF samples (0.05 mL) were collected through the intracisternal catheter. Blood samples (0.25 mL) were collected through retro-orbital sampling. These samples were kept on ice until processed for plasma. Blood samples were centrifuged at 3200 rpm for 5 minutes at approximately 5° C. within 1 hour of collection. Plasma was directly transferred to a 96-well plate tube (0.125 mL). Plug caps were placed on the tubes and the tubes frozen at approximately −70° C. and stored until analysis.
Plasma was collected and analyzed for the presence of compound.
The compound in question and the internal standard were extracted from plasma and CSF by precipitation. Samples were analyzed using liquid chromatography (LC) with tandem mass spectrometric detection (MS/MS) using electrospray ionization. The standard curve range was from 1 to 1000 ng/mL. Results of the compounds described herein in this assay are illustrated in Tables 4A (for compounds in Table IA) and 4B (for compounds in Table IB) below.
Kp,uu is defined as the concentration ratio of unbound drug in CSF to unbound drug in plasma. Unbound drug in plasma (or free plasma concentration) is calculated by multiplying the total plasma concentration by the unbound fraction as determined by plasma protein binding. The CSF concentration is then divided by the free plasma concentration to determine the Kp,uu. (See e.g., Di et al., J. Med. Chem., 56, 2-12 (2013))

[2] = compounds in Table IB, read-out: Glo-sensor Abs EC50
[3] = compounds in Table IA, read-out: Glo-sensor AbsEC50

## Fc1ccc2c(Cc3cncnc3)nc(-c3nc(C(F)(F)F)n[nH]3)n2c1 [Compound I-12, 6-fluoro-1-(pyrimidin-5-ylmethyl)-3-(3-(trifluoromethyl)-1H-1,2,4-triazol-5-yl)imidazo[1,5-a]pyridine]
sGC enzyme; [2]
  EC50: < 100 nM
[1]; compounds in Table IB
  concentration at 1 h: 45 nM
  Kp uu at 1 h: 0.16

## Fc1ccccc1Cn1nc(-c2nc(C(F)F)n[nH]2)c2cccnc21 [Compound I-20, 3-(3-(Difluoromethyl)-1H-1,2,4-triazol-5-yl)-1-(2-fluorobenzyl)-1H-pyrazolo[3,4-b]pyridine]
sGC enzyme; [3]
  EC50: < 100 nM
[1]; compounds in Table IA
  concentration at 1 h: 207 nM
  Kp uu at 1 h: 3.37

## Fc1cncc(Cn2nc(-c3nc(C(F)(F)F)n[nH]3)c3cccnc32)c1 [Compound I-1, 1-((5-fluoropyridin-3-yl)methyl)-3-(3-(trifluoromethyl)-1H-1,2,4-triazol-5-yl)-1H-pyrazolo[3,4-b]pyridine]
sGC enzyme; [3]
  EC50: < 100 nM
[1]; compounds in Table IA
  concentration at 1 h: 164 nM
  Kp uu at 1 h: 0.24

## N#Cc1n[nH]c(-c2nn(Cc3cccc(F)c3F)c3ncccc23)n1 [Compound I-92, 5-(1-(2,3-Difluorobenzyl)-1H-pyrazolo[3,4-b]pyridin-3-yl)-1H-1,2,4-triazole-3-carbonitrile]
sGC enzyme; [3]
  EC50: < 100 nM
[1]; compounds in Table IA
  concentration at 1 h: 10.8 nM
  Kp uu at 1 h: 0.52

## Cc1n[nH]c(-c2nc(Cc3cncnc3)c3ccccn23)n1 [Compound I-5, 3-(3-methyl-1H-1,2,4-triazol-5-yl)-1-(pyrimidin-5-ylmethyl)imidazo[1,5-a]pyridine]
sGC enzyme; [2]
  EC50: 100 to 1000 nM
[1]; compounds in Table IB
  concentration at 1 h: 30.4 nM
  Kp uu at 1 h: 1.08

## Cc1ncc(Cc2nc(-c3nc(C(F)(F)F)n[nH]3)n3cc(Cl)ccc23)cn1 [Compound I-34, 6-Chloro-1-((2-methylpyrimidin-5-yl)methyl)-3-(3-(trifluoromethyl)-1H-1,2,4-triazol-5-yl)imidazo[1,5-a]pyridine]
sGC enzyme; [2]
  EC50: > 1000 nM

## Fc1ccccc1Cn1nc(-c2nc(C3CC3)n[nH]2)c2cccnc21 [Compound I-68, 3-(3-Cyclopropyl-1H-1,2,4-triazol-5-yl)-1-(2-fluorobenzyl)-1H-pyrazolo[3,4-b]pyridine]
sGC enzyme; [3]
  EC50: < 100 nM

## Fc1cccnc1Cn1nc(-c2nc(C(F)(F)F)n[nH]2)c2cccnc21 [Compound I-13, 1-((3-Fluoropyridin-2-yl)methyl)-3-(3-(trifluoromethyl)-1H-1,2,4-triazol-5-yl)-1H-pyrazolo[3,4-b]pyridine]
sGC enzyme; [3]
  EC50: 100 to 1000 nM

## CN(C)c1n[nH]c(-c2nn(Cc3ccccc3F)c3ncccc23)n1 [Compound I-90]
sGC enzyme; [3]
  EC50: 100 to 1000 nM

## Fc1ccccc1Cn1nc(-c2nc(C3CN(CC(F)(F)F)C3)n[nH]2)c2cccnc21 [Compound I-95, 1-(2-Fluorobenzyl)-3-(3-(1-(2,2,2-trifluoroethyl)azetidin-3-yl)-1H-1,2,4-triazol-5-yl)-1H-pyrazolo[3,4-b]pyridine]
sGC enzyme; [3]
  EC50: 100 to 1000 nM

## Cc1ncc(Cc2nc(-c3nc(C(F)(F)F)n[nH]3)n3cc(F)ccc23)cn1 [Compound I-23, 6-Fluoro-1-((2-methylpyrimidin-5-yl)methyl)-3-(3-(trifluoromethyl)-1H-1,2,4-triazol-5-yl)imidazo[1,5-a]pyridine pyridine]
sGC enzyme; [2]
  EC50: 100 to 1000 nM

## Fc1cccc(Cc2nn(-c3nc(C(F)(F)F)n[nH]3)c3cccnc23)c1 [Compound I-120, 3-(3-Fluorobenzyl)-1-(3-(trifluoromethyl)-1H-1,2,4-triazol-5-yl)-1H-pyrazolo[4,3-b]pyridine]
sGC enzyme; [3]
  EC50: 100 to 1000 nM

## Fc1ccccc1Cn1nc(-c2nc(-c3ccccc3)n[nH]2)c2cccnc21 [Compound I-39]
sGC enzyme; [3]
  EC50: > 1000 nM

## FC(F)(F)c1n[nH]c(-c2nn(CC(F)(F)C(F)(F)F)c3ncccc23)n1 [Compound I-19, 1-(2,2,3,3,3-Pentafluoropropyl)-3-(3-(trifluoromethyl)-1H-1,2,4-triazol-5-yl)-1H-pyrazolo[3,4-b]pyridine]
sGC enzyme; [3]
  EC50: > 1000 nM

## OC1(c2n[nH]c(-c3nn(Cc4ccccc4F)c4ncccc34)n2)CC1 [Compound I-104, 1-(5-(1-(2-Fluorobenzyl)-1H-pyrazolo[3,4-b]pyridin-3-yl)-1H-1,2,4-triazol-3-yl)cyclopropanol]
sGC enzyme; [3]
  EC50: < 100 nM

## Fc1ccccc1Cn1nc(-c2nc(C3(C(F)(F)F)CC3)n[nH]2)c2cccnc21 [Compound I-59, 1-(2-fluorobenzyl)-3-(3-(1-(trifluoromethyl)cyclopropyl)-1H-1,2,4-triazol-5-yl)-1H-pyrazolo[3,4-b]pyridine]
sGC enzyme; [3]
  EC50: 100 to 1000 nM

## Fc1cc(F)cc(Cc2nn(-c3nc(C(F)F)n[nH]3)c3cccnc23)c1 [Compound I-123, 3-(3,5-Difluorobenzyl)-1-(3-(difluoromethyl)-1H-1,2,4-triazol-5-yl)-1H-pyrazolo[4,3-b]pyridine]
sGC enzyme; [3]
  EC50: 100 to 1000 nM

## Fc1cc(F)c2c(Cc3cncnc3)nc(-c3nc(C(F)(F)F)n[nH]3)n2c1 [Compound I-28, 6,8-Difluoro-1-(pyrimidin-5-ylmethyl)-3-(3-(trifluoromethyl)-1H-1,2,4-triazol-5-yl)imidazo[1,5-a]pyridine]
sGC enzyme; [2]
  EC50: < 100 nM

## Fc1ccccc1Cn1nc(-c2nc(C(F)(F)F)n[nH]2)c2cnccc21 [Compound I-43, 1-(2-Fluorobenzyl)-3-(3-(trifluoromethyl)-1H-1,2,4-triazol-5-yl)-1H-pyrazolo[4,3-c]pyridine]
sGC enzyme; [3]
  EC50: > 1000 nM
